According to the supplement of paper PMC10307832:

How the values were obtained:
Assay in all cases: relative viability (nuclei count vs DMSO), 5 days (fraction); higher = more cells survive
NCI-H1648 = test system: NCI-H1648
Method in brief: (§1)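 Each reported value is a median over duplicate plates. It expresses relative viability: treated-well nuclei count divided by vehicle-well nuclei count. Lung cancer cell lines in 1536-well plates were dosed by pin tool a day after seeding, alone with one drug or with a fixed anchor-drug dose plus five library-drug doses (not always all listed) in √10 steps, and nuclei were counted after 5 days.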

NCI-H1437 = test system: NCI-H1437
Method in brief: as §1

NCI-H1703 = test system: NCI-H1703
Method in brief: as §1

NCI-H2085 = test system: NCI-H2085
Method in brief: as §1

HCC-44 = test system: HCC-44
Method in brief: as §1

HCC-366 = test system: HCC-366
Method in brief: as §1

LOU-NH91 = test system: LOU-NH91
Method in brief: as §1

NCI-H3122 = test system: NCI-H3122
Method in brief: as §1

NCI-H1299 = test system: NCI-H1299
Method in brief: as §1

IA-LM = test system: IA-LM
Method in brief: as §1

A549 = test system: A549
Method in brief: as §1

Calu-6 = test system: Calu-6
Method in brief: as §1

EBC-1 = test system: EBC-1
Method in brief: as §1

## CCN(CC)CCCCNc1ncc2cc(-c3cc(OC)cc(OC)c3)c(NC(=O)NC(C)(C)C)nc2n1 + NC(=O)Nc1cc(-c2cccc(F)c2)sc1C(=O)N[C@H]1CCCNC1 [AZD7762] (partner 0.2 µM)
NCI-H1648; first compound 0.01 µM
  relative viability: 0.69
NCI-H1648; first compound 0.03162 µM
  relative viability: 0.688
NCI-H1648; first compound 0.1 µM
  relative viability: 0.757
NCI-H1648; first compound 0.3162 µM
  relative viability: 0.583
NCI-H1648; first compound 1 µM
  relative viability: 0.445
NCI-H1437; first compound 0.01 µM
  relative viability: 1.2
NCI-H1437; first compound 0.03162 µM
  relative viability: 1.07
NCI-H1437; first compound 0.1 µM
  relative viability: 1.17
NCI-H1437; first compound 0.3162 µM
  relative viability: 1.17
NCI-H1437; first compound 1 µM
  relative viability: 1.04
NCI-H1703; first compound 0.03162 µM
  relative viability: 0.0943
NCI-H1703; first compound 0.1 µM
  relative viability: 0.12
NCI-H1703; first compound 0.3162 µM
  relative viability: 0.143
NCI-H1703; first compound 1 µM
  relative viability: 0.112
NCI-H2085; first compound 0.01 µM
  relative viability: 0.991
NCI-H2085; first compound 0.03162 µM
  relative viability: 1.05
NCI-H2085; first compound 0.1 µM
  relative viability: 1.05
NCI-H2085; first compound 0.3162 µM
  relative viability: 1.04
NCI-H2085; first compound 1 µM
  relative viability: 0.912
HCC-44; first compound 0.01 µM
  relative viability: 1
HCC-44; first compound 0.03162 µM
  relative viability: 1.02
HCC-44; first compound 0.1 µM
  relative viability: 1.02
HCC-44; first compound 0.3162 µM
  relative viability: 1.02
HCC-44; first compound 1 µM
  relative viability: 1.12
HCC-366; first compound 0.01 µM
  relative viability: 0.256
HCC-366; first compound 0.03162 µM
  relative viability: 0.462
HCC-366; first compound 0.1 µM
  relative viability: 0.277
HCC-366; first compound 0.3162 µM
  relative viability: 0.289
HCC-366; first compound 1 µM
  relative viability: 0.247
LOU-NH91; first compound 0.01 µM
  relative viability: 0.783
LOU-NH91; first compound 0.03162 µM
  relative viability: 0.768
LOU-NH91; first compound 0.1 µM
  relative viability: 0.828
LOU-NH91; first compound 0.3162 µM
  relative viability: 0.845
LOU-NH91; first compound 1 µM
  relative viability: 0.794
NCI-H3122; first compound 0.01 µM
  relative viability: 1
NCI-H3122; first compound 0.03162 µM
  relative viability: 0.987
NCI-H3122; first compound 0.1 µM
  relative viability: 1.08
NCI-H3122; first compound 0.3162 µM
  relative viability: 0.971
NCI-H3122; first compound 1 µM
  relative viability: 1.06

## O=c1cc(-c2cccc3c2Sc2ccccc2S3)oc(N2CCOCC2)c1 + NC(=O)Nc1cc(-c2cccc(F)c2)sc1C(=O)N[C@H]1CCCNC1 [AZD7762] (partner 0.2 µM)
NCI-H1648; first compound 0.253 µM
  relative viability: 0.694
NCI-H1648; first compound 0.8 µM
  relative viability: 0.734
NCI-H1648; first compound 8 µM
  relative viability: 0.69
NCI-H1437; first compound 0.08 µM
  relative viability: 1.07
NCI-H1437; first compound 0.253 µM
  relative viability: 1.23
NCI-H1437; first compound 0.8 µM
  relative viability: 1.2
NCI-H1437; first compound 2.53 µM
  relative viability: 1.17
NCI-H1437; first compound 8 µM
  relative viability: 1.23
NCI-H1703; first compound 0.253 µM
  relative viability: 0.13
NCI-H1703; first compound 2.53 µM
  relative viability: 0.098
NCI-H1703; first compound 8 µM
  relative viability: 0.116
NCI-H2085; first compound 0.08 µM
  relative viability: 1.01
NCI-H2085; first compound 0.253 µM
  relative viability: 1.17
NCI-H2085; first compound 0.8 µM
  relative viability: 1.02
NCI-H2085; first compound 2.53 µM
  relative viability: 0.836
NCI-H2085; first compound 8 µM
  relative viability: 0.614
HCC-44; first compound 0.08 µM
  relative viability: 1.06
HCC-44; first compound 0.253 µM
  relative viability: 1.04
HCC-44; first compound 0.8 µM
  relative viability: 0.937
HCC-44; first compound 2.53 µM
  relative viability: 0.991
HCC-44; first compound 8 µM
  relative viability: 0.986
HCC-366; first compound 0.08 µM
  relative viability: 0.258
HCC-366; first compound 0.253 µM
  relative viability: 0.32
HCC-366; first compound 0.8 µM
  relative viability: 0.302
HCC-366; first compound 2.53 µM
  relative viability: 0.118
HCC-366; first compound 8 µM
  relative viability: 0.222
LOU-NH91; first compound 0.08 µM
  relative viability: 0.764
LOU-NH91; first compound 0.253 µM
  relative viability: 0.778
LOU-NH91; first compound 0.8 µM
  relative viability: 0.697
LOU-NH91; first compound 2.53 µM
  relative viability: 0.714
LOU-NH91; first compound 8 µM
  relative viability: 0.786
NCI-H3122; first compound 0.08 µM
  relative viability: 1.02
NCI-H3122; first compound 0.253 µM
  relative viability: 1.06
NCI-H3122; first compound 0.8 µM
  relative viability: 1.03
NCI-H3122; first compound 2.53 µM
  relative viability: 0.933
NCI-H3122; first compound 8 µM
  relative viability: 1.04

## O=c1cc(N2CCOCC2)oc2c(-c3cccc4c3sc3ccccc34)cccc12 + O=C(c1cc(Cc2n[nH]c(=O)c3ccccc23)ccc1F)N1CCN(C(=O)C2CC2)CC1 [Olaparib] (partner 8 µM)
NCI-H1648; first compound 0.03162 µM
  relative viability: 0.787
NCI-H1648; first compound 0.1 µM
  relative viability: 1.28
NCI-H1648; first compound 0.3162 µM
  relative viability: 0.936
NCI-H1648; first compound 1 µM
  relative viability: 1.17
NCI-H1437; first compound 0.01 µM
  relative viability: 0.606
NCI-H1437; first compound 0.03162 µM
  relative viability: 0.656
NCI-H1437; first compound 0.1 µM
  relative viability: 0.725
NCI-H1437; first compound 0.3162 µM
  relative viability: 0.656
NCI-H1437; first compound 1 µM
  relative viability: 0.613
NCI-H1299; first compound 0.01 µM
  relative viability: 0.961
NCI-H1299; first compound 0.03162 µM
  relative viability: 0.946
NCI-H1299; first compound 0.1 µM
  relative viability: 0.985
NCI-H1299; first compound 0.3162 µM
  relative viability: 0.974
NCI-H1299; first compound 1 µM
  relative viability: 0.917
IA-LM; first compound 0.01 µM
  relative viability: 0.883
IA-LM; first compound 0.03162 µM
  relative viability: 0.941
IA-LM; first compound 0.1 µM
  relative viability: 0.766
IA-LM; first compound 0.3162 µM
  relative viability: 0.793
IA-LM; first compound 1 µM
  relative viability: 0.769
NCI-H1703; first compound 0.01 µM
  relative viability: 0.548
NCI-H1703; first compound 0.03162 µM
  relative viability: 0.274
NCI-H1703; first compound 0.1 µM
  relative viability: 0.411
NCI-H1703; first compound 0.3162 µM
  relative viability: 0.446
NCI-H1703; first compound 1 µM
  relative viability: 0.511
A549; first compound 0.01 µM
  relative viability: 0.429
A549; first compound 0.03162 µM
  relative viability: 0.31
A549; first compound 0.1 µM
  relative viability: 0.295
A549; first compound 0.3162 µM
  relative viability: 0.356
A549; first compound 1 µM
  relative viability: 0.268
NCI-H2085; first compound 0.01 µM
  relative viability: 0.806
NCI-H2085; first compound 0.03162 µM
  relative viability: 0.813
NCI-H2085; first compound 0.1 µM
  relative viability: 0.775
NCI-H2085; first compound 0.3162 µM
  relative viability: 0.767
NCI-H2085; first compound 1 µM
  relative viability: 0.767
HCC-44; first compound 0.01 µM
  relative viability: 1.01
HCC-44; first compound 0.03162 µM
  relative viability: 0.909
HCC-44; first compound 0.1 µM
  relative viability: 0.917
HCC-44; first compound 0.3162 µM
  relative viability: 0.973
HCC-44; first compound 1 µM
  relative viability: 0.987
Calu-6; first compound 0.01 µM
  relative viability: 0.614
Calu-6; first compound 0.03162 µM
  relative viability: 0.606
Calu-6; first compound 0.1 µM
  relative viability: 0.602
Calu-6; first compound 0.3162 µM
  relative viability: 0.484
Calu-6; first compound 1 µM
  relative viability: 0.657
HCC-366; first compound 0.01 µM
  relative viability: 0.368
HCC-366; first compound 0.03162 µM
  relative viability: 0.319
HCC-366; first compound 0.1 µM
  relative viability: 0.435
HCC-366; first compound 0.3162 µM
  relative viability: 0.346
HCC-366; first compound 1 µM
  relative viability: 0.386
LOU-NH91; first compound 0.01 µM
  relative viability: 0.855
LOU-NH91; first compound 0.03162 µM
  relative viability: 0.916
LOU-NH91; first compound 0.1 µM
  relative viability: 0.96
LOU-NH91; first compound 0.3162 µM
  relative viability: 0.921
LOU-NH91; first compound 1 µM
  relative viability: 0.884
EBC-1; first compound 0.01 µM
  relative viability: 0.709
EBC-1; first compound 0.03162 µM
  relative viability: 0.667
EBC-1; first compound 0.1 µM
  relative viability: 0.757
EBC-1; first compound 0.3162 µM
  relative viability: 0.788
EBC-1; first compound 1 µM
  relative viability: 0.624
NCI-H3122; first compound 0.01 µM
  relative viability: 0.604
NCI-H3122; first compound 0.03162 µM
  relative viability: 0.679
NCI-H3122; first compound 0.1 µM
  relative viability: 0.566
NCI-H3122; first compound 0.3162 µM
  relative viability: 0.606
NCI-H3122; first compound 1 µM
  relative viability: 0.614
